Patent US10106538B2, “Inhibitors of protein kinases” (PRINCETON DRUG DISCOVERY INC, priority 2015, dated 2018)

How the values were obtained:
Assay in all cases: Off-chip Mobility Shift Assay (MSA) kinase inhibition
Format in all cases: biochemical
ABL(E255K) = target: T1, ABL(E255K) (Homo sapiens, UniProt P00519, E255K); details: inhibitor concentration 0.1 μM
T1 construct: purchased Carna Biosciences
Procedure, shortened: (§1)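 Steps: mix compound with substrate/ATP/metal solution and kinase in assay buffer (20 mM HEPES, 0.01% Triton X100, 2 mM DTT, pH 7.5); incubate at room temperature for 1 or 5 hour(s); measure inhibition by mobility shift off-chip.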

MAP3K4 = target: T2, MAP3K4 (Homo sapiens, UniProt Q9Y6R4); details: inhibitor concentration 0.1 μM
T2 construct: purchased Carna Biosciences
Procedure, shortened: as §1

PIK3CA/PIK3R1 = target: T3, PIK3CA/PIK3R1 (Homo sapiens, UniProt P42336); details: for inhibition at 0.1 µM: inhibitor concentration 0.1 μM
T3 construct: purchased Carna Biosciences
Procedure, shortened: as §1

FLT3 = target: T4, FLT3 (Homo sapiens, UniProt P36888); details: for inhibition at 0.1 µM: inhibitor concentration 0.1 μM
T4 construct: purchased Carna Biosciences
T4 sequence (P36888 27-993): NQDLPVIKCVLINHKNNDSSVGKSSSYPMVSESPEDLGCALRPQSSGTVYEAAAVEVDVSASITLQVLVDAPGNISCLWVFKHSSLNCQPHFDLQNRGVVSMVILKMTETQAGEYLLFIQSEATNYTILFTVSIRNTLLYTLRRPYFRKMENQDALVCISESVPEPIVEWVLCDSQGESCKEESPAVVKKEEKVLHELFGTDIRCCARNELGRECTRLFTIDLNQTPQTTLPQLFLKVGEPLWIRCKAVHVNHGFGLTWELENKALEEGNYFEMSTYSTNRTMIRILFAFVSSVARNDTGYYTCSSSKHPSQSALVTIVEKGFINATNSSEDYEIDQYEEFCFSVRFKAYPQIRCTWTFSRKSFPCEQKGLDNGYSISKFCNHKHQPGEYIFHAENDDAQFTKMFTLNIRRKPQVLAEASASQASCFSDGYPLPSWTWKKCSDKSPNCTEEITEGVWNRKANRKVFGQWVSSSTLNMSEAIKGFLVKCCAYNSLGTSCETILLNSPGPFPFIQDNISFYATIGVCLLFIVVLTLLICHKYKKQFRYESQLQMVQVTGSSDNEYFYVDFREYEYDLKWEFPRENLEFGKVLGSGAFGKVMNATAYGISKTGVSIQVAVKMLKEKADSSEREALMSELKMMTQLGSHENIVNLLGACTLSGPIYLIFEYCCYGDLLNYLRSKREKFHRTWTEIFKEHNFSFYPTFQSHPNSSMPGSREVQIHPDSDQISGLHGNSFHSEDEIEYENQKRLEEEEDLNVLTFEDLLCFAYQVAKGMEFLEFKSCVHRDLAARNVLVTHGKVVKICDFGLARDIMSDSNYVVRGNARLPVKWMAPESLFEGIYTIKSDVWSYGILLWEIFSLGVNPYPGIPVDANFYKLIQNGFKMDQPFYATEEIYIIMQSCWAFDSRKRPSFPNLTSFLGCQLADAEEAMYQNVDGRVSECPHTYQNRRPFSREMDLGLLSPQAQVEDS
Procedure, shortened: as §1

FGR = target: T5, FGR (Homo sapiens, UniProt P09769); details: for inhibition at 0.1 µM: inhibitor concentration 0.1 μM
T5 construct: purchased Carna Biosciences
Procedure, shortened: as §1

KIT = target: T6, KIT (Homo sapiens, UniProt P10721); details: for inhibition at 0.1 µM: inhibitor concentration 0.1 μM
T6 construct: purchased Carna Biosciences
Procedure, shortened: as §1

BRAF(V600E) = target: T7, BRAF(V600E) (Homo sapiens, UniProt P15056, V600E)
T7 construct: purchased Carna Biosciences
Procedure, shortened: as §1

PIM1 = target: T8, PIM1 (Homo sapiens, UniProt P11309); details: inhibitor concentration 0.1 μM
T8 construct: purchased Carna Biosciences
Procedure, shortened: as §1

PDGFRα(T674I) = target: T9, PDGFRα(T674I) (Homo sapiens, UniProt P16234, T674I)
T9 construct: purchased Carna Biosciences
Method: (§2) Off-chip Mobility Shift Assay (MSA) by Cama Biosciences, Inc (Natick, Mass.) a used for measuring the kinase activity and inhibition. • 1) The 5 μL of x4 compound solution, 5 μL of x4 Substrate/ATP/Metal solution, and 10 μL of x2 kinase solution were prepared with assay buffer (20 mM HEPES, 0.01% Triton X100, 2 mM DTT, pH 7.5) and mixed and incubated in a well of polypropylene 384 well microplate for 1 or 5 hour(s)* at room temperature. (*; depending on kinase) • 2) 70 μL of Termination Buffer (QuickScout Screening Assist A; Cama Biosciences) was added to the welt • 3) The reaction mixture was applied to LabChip system (Perkin Elmer), and the product and substrate peptide peaks were separated and quantitated. • 4) The kinase reaction was evaluated by the product ratio calculated from peak heights of product (P) and substrate (S) peptides (P/(P+S)). • 5) The reaction conditions were followed according to assay protocols of Ca n Biosciences, Inc (BMA 3F, 1-5-5 Minatojima-Minamimachi, Chuo-ku, Kobe 650-0047, Japan; www.carnabio.com). • 6 Data analysis: The readout value of reaction control (complete reaction mixture) was set as a 0% inhibition, and the readout value of background (Enzyme (−)) was set as a 100% inhibition, then the percent inhibition of each test solution was calculated, […]

PDGFRα(V561D) = target: T10, PDGFRα(V561D) (Homo sapiens, UniProt P16234, V561D)
T10 construct: purchased Carna Biosciences
Method: as §2

PDGFRα(D842V) = target: T11, PDGFRα(D842V) (Homo sapiens, UniProt P16234, D842V)
T11 construct: purchased Carna Biosciences
Method: as §2

skMLCK = target: T12, skMLCK (Homo sapiens, UniProt Q9H1R3); details: inhibitor concentration 1 μM
T12 construct: purchased Carna Biosciences
Method: as §2

KIT(D816E) = target: T13, KIT(D816E) (Homo sapiens, UniProt P10721, D816E); details: inhibitor concentration 1 μM
T13 construct: purchased Carna Biosciences
Method: as §2

[1] = inhibitor concentration 0.01 μM
[2] = inhibitor concentration 0.01 μM, 0.01 µM

T2 sequence (Q9Y6R4 whole entry): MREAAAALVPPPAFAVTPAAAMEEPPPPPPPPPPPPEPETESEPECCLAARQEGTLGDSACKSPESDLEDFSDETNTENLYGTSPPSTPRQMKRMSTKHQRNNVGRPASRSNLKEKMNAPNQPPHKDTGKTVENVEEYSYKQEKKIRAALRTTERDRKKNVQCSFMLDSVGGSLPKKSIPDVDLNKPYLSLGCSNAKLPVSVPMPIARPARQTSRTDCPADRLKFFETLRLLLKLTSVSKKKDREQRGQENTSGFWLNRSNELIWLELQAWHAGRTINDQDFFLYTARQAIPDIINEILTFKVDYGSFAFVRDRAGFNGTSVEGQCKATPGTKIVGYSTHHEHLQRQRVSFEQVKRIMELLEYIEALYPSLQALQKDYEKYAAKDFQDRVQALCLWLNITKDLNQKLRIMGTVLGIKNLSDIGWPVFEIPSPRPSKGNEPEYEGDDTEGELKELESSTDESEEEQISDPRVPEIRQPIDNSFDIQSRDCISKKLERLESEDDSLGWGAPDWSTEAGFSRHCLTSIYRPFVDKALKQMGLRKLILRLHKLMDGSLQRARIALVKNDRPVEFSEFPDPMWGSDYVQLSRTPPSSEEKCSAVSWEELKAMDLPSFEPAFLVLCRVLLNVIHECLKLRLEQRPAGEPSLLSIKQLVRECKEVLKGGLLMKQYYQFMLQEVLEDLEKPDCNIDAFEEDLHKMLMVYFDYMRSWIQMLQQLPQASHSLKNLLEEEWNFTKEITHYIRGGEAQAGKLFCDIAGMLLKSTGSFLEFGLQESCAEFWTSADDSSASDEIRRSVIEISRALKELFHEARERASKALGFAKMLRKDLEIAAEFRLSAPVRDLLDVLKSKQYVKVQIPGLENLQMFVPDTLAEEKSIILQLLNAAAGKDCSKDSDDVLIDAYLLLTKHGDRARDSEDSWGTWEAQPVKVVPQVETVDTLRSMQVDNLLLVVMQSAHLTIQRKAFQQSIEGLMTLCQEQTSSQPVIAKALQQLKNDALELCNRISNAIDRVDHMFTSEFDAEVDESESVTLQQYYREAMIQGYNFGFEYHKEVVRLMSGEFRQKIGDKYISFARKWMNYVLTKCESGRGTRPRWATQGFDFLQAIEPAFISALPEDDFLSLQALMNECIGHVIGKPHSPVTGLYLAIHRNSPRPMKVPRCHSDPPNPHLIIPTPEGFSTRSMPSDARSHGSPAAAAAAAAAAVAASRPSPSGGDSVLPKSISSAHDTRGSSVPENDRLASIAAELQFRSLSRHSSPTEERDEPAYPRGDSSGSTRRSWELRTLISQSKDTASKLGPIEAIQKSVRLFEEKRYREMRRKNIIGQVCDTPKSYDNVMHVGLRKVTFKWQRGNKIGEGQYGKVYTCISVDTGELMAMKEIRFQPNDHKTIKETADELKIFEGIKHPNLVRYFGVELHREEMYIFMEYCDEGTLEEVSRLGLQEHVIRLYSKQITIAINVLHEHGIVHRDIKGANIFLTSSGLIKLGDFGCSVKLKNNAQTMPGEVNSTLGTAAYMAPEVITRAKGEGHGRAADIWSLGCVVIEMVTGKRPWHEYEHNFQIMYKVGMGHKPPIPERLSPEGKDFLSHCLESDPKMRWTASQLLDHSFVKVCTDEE
T5 sequence (P09769 whole entry): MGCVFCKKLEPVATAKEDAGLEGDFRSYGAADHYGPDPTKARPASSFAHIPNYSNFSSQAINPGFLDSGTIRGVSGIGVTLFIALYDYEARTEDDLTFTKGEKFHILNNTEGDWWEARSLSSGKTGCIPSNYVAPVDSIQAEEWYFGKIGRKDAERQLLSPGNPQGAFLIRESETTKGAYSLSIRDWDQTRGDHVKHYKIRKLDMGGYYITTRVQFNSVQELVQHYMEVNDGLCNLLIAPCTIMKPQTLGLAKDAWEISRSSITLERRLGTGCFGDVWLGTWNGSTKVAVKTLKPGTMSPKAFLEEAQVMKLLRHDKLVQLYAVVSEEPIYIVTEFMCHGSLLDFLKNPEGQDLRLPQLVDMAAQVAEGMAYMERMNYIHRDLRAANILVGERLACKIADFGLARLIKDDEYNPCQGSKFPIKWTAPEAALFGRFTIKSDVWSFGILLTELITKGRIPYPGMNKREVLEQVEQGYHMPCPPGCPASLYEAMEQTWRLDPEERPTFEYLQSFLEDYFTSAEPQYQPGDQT
T7 sequence (P15056 whole entry V600E): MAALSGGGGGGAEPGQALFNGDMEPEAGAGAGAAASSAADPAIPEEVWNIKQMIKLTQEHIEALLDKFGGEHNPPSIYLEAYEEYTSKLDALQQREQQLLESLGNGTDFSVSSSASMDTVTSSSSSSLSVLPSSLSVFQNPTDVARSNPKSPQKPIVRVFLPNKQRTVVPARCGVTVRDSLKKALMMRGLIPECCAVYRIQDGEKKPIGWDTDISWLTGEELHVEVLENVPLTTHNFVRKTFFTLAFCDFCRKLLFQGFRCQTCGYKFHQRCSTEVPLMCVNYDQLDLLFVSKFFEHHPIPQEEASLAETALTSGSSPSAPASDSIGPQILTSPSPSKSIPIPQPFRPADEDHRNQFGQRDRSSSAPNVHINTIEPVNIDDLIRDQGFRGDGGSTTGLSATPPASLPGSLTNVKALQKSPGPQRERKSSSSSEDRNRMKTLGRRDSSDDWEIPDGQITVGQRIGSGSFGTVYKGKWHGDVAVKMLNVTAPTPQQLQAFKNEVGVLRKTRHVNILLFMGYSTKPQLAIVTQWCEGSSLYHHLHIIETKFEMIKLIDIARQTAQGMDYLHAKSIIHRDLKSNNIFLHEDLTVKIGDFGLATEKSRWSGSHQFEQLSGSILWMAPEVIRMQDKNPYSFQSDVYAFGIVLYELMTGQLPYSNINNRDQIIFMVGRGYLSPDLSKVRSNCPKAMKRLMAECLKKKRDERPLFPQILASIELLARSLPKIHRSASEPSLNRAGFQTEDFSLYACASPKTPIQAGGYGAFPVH
T6 sequence (P10721 26-976): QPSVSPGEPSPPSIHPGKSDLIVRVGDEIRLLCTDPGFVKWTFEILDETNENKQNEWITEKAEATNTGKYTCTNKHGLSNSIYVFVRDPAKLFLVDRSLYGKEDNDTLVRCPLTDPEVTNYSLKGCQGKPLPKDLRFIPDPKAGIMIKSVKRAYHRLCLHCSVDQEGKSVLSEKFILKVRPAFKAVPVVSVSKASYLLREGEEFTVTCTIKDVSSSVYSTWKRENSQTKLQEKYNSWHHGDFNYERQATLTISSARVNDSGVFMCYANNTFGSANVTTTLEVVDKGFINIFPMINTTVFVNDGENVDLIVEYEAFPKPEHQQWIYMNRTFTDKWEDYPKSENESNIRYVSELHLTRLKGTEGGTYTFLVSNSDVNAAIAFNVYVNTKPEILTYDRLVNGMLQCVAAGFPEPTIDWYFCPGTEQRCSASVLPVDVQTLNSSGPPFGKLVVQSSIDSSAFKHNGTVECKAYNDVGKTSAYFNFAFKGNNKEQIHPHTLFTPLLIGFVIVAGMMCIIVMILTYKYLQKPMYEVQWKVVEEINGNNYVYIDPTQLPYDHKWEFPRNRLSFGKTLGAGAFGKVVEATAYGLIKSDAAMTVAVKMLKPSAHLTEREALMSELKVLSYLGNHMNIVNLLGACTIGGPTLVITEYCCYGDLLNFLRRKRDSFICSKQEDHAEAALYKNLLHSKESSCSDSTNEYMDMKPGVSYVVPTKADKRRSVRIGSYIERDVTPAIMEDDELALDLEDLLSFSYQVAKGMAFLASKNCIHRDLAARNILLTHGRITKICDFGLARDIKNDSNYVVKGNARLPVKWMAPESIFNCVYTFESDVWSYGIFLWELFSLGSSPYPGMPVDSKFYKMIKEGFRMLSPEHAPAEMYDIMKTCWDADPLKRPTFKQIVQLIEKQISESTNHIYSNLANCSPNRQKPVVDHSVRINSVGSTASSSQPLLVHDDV
T8 sequence (P11309 whole entry): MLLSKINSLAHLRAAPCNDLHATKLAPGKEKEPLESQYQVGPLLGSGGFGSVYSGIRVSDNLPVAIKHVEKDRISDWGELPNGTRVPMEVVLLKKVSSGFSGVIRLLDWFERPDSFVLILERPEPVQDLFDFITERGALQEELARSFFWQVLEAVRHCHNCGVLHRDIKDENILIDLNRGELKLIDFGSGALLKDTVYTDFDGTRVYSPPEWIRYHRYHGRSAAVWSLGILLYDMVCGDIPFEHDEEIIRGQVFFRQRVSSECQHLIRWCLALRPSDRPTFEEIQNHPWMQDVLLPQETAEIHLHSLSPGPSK
T13 sequence (P10721 26-976 D816E): as the sequence (P10721 26-976) above, with D791E counted along it

Compound	inhibition at 0.1 µM (ABL(E255K)) [%]	inhibition at 0.1 µM (MAP3K4) [%]	inhibition at 0.1 µM (PIK3CA/PIK3R1) [%]	inhibition at 0.1 µM (FLT3) [%]	inhibition at 0.1 µM (FGR) [%]	inhibition at 0.1 µM (KIT) [%]	inhibition at 0.1 µM (PIM1) [%]	also measured
CC(O)CS(=O)(=O)Nc1ccc(F)c(C(=O)c2c[nH]c3ncc(-c4ccc(Cl)cc4)cc23)c1F (centres unmarked) [200-115]	< 30	< 30	< 30	< 30	> 30	< 30	< 30	
C/C=C/S(=O)(=O)Nc1ccc(F)c(C(=O)c2c[nH]c3ncc(-c4ccc(Cl)cc4)cc23)c1F [200-93b]								FGR inhibition (FGR; [2]): >20%; KIT inhibition (KIT; [2]): <20%; BRAF(V600E) inhibition (BRAF(V600E); [2]): <20%; PDGFRα(T674I) inhibition (PDGFRα(T674I); [2]): <20%; PDGFRα(V561D) inhibition (PDGFRα(V561D); [2]): <20%; PDGFRα(D842V) inhibition (PDGFRα(D842V); [2]): <20%
CC(=O)CS(=O)(=O)Nc1ccc(F)c(C(=O)c2c[nH]c3ncc(-c4ccc(Cl)cc4)cc23)c1F [200-117]	< 30	< 30	< 30	< 30	> 30	< 30	< 30	

More lines, main results first:

inhibition at 0.1 µM (ABL(E255K)) [%]	inhibition at 0.1 µM (MAP3K4) [%]	inhibition at 0.1 µM (PIK3CA/PIK3R1) [%]	inhibition at 0.1 µM (FLT3) [%]	inhibition at 0.1 µM (FGR) [%]	inhibition at 0.1 µM (KIT) [%]	inhibition at 0.1 µM (PIM1) [%]	Compound	also measured
< 30	< 30	< 30	< 30	< 30	< 30	< 30	O=C(c1c(F)ccc(NS(=O)(=O)CC(O)CO)c1F)c1c[nH]c2ncc(-c3ccc(Cl)cc3)cc12 (stereo not drawn) [200-73, N-[3-[5-(4-chlorophenyl)-lH-pyrrolo [2,3-b]pyridine-3-carbonyl]-2,4-difluorophenyl]-2,3-dihydroxypropane-l-sulfonamide]	inhibition at 0.1 µM (BRAF(V600E); inhibitor concentration 0.1 μM): < 30%
				> 50	> 50		O=C(c1c(F)ccc(NS(=O)(=O)CCCO)c1F)c1c[nH]c2ncc(-c3ccc(Cl)cc3)cc12 [200-17, N-[3-[5-(4-chlorophenyl)-1H-pyrrolo[2,3-b]pyridine-3-carbonyl]-2,4-difluorophenyl]-3-hydroxypropane-1-sulfonamide]	inhibition at 1 µM (PIK3CA/PIK3R1; inhibitor concentration 1 μM): > 50%; inhibition at 1 µM (FLT3; inhibitor concentration 1 μM): > 50%; inhibition at 0.01 µM (FGR; [1]): > 30%; inhibition at 1 µM (FGR; inhibitor concentration 1 μM): > 50%; inhibition at 0.01 µM (KIT; [1]): > 30%; inhibition at 1 µM (KIT; inhibitor concentration 1 μM): > 50%; inhibition at 1 µM (BRAF(V600E); inhibitor concentration 1 μM): > 50%; inhibition at 1 µM (PDGFRα(T674I); inhibitor concentration 1 μM): < 50%; inhibition at 0.01 µM (PDGFRα(V561D); [1]): < 30%; inhibition at 0.1 µM (PDGFRα(V561D); inhibitor concentration 0.1 μM): > 50%; inhibition at 1 µM (PDGFRα(V561D); inhibitor concentration 1 μM): > 50%; inhibition at 1 µM (PDGFRα(D842V); inhibitor concentration 1 μM): > 50%; inhibition at 1 µM (skMLCK): > 50%; inhibition at 1 µM (KIT(D816E)): > 50%
